One may read the AC50 as the midpoint of the concentration-response curve, whichever way the signal moves.

The target in data set [1] is T1, Cytochrome P450 3A4 (Homo sapiens, UniProt P08684).
Another data set concerns the target Cytochrome P450 2D6 (Homo sapiens, UniProt P10635).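 Also: CYP2D6 member of a cytochrome P450 panel assay.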
In data set [2] the target is T1, Cytochrome P450 3A4. This is another data set of the same source.
A short description of data set [3]: NIH3T3 cell viability loss – ATP luminescence, mouse fibroblasts, counter-screen, dose response (AID 2010).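 Also: cells exposed to compound for about 90 hours before reading.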 The data set is classed as functional, cell-based. Conditions: NIH3T3. In general terms: A counterscreen serves to expose hits that act by an unwanted route or on another target.
Data set [4] is described as follows: Trypanosoma cruzi growth suppression in host cells – NIH3T3 host cells, beta-gal luminescence, confirmation (AID 2044).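 Also: intracellular parasites grown in NIH/3T3 mouse fibroblasts as host cells; luminescent beta-galactosidase reporter signal from transgenic T. cruzi replicating inside host cells; inhibitors lower the luminescence signal.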 In kind it is functional, cell-based.
The nature of data set [5]: alpha-synuclein stem-loop luciferase translation blockers – H4 neuroglioma cells, luminescence, confirmation (AID 1988). The data set is classed as functional, cell-based.
Data set [6] is described as follows: Luminescence Cell-Based Dose Response HTS to Identify Inhibitors of 5'UTR Stem-Loop Driven Prion Protein mRNA Translation in H4 Neuroglioblastoma Cells. [Related pubchem assays: 1827 (Project Summary), 1813 (Primary HTS)]. The data set is classed as functional.
Data set [7] addresses Eukaryotic translation initiation factor 4E (Mus musculus, UniProt P63073). The experiment in a line: blockers of eIF4G binding by eIF4E – biochemical, TR-FRET, dose response (AID 855).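 Also: potency for disrupting eIF4E binding to eIF4GI seen as loss of FRET.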 In kind it is functional. On the technique in general: Time-resolved FRET reads energy transfer from a long-lived donor to a nearby acceptor.
Data set [8] is described as follows: luciferase reporter signal suppression in cells – H4 neuroglioma cells, luminescence, dose response (AID 1990). In kind it is functional, cell-based. (In general: Reporter assays use an easily measured gene product as a stand-in for the process of interest.)
The target of data set [9] is T2, Cytochrome P450 2C9 (Homo sapiens, UniProt P11712).
A further data set relates to HEK293. The experiment in a line: cells. The note with it: Homo sapiens.
A further data set addresses Tumor necrosis factor (Homo sapiens, UniProt P01375). The experiment in a line: analog potency on TNFa NF-kB signaling – cell-based, revised, SAR follow-up (AID 2337). The data set is classed as functional.
The target of data set [10] is T3, Corticotropin-releasing factor receptor 2/Corticotropin-releasing factor-binding protein (Homo sapiens, UniProt P24387+Q13324).
T3 sequence (Q13324 whole entry): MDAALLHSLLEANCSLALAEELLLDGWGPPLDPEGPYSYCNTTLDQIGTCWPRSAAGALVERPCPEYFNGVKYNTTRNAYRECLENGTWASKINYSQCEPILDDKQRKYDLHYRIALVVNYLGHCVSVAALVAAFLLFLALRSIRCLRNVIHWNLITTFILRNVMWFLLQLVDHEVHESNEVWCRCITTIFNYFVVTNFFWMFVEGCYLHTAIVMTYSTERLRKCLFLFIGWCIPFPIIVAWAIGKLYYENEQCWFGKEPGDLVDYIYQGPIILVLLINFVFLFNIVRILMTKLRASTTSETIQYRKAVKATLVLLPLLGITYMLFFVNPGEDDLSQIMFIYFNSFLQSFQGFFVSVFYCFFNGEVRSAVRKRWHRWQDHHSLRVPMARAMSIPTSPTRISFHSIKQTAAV
T3 sequence (P24387 whole entry): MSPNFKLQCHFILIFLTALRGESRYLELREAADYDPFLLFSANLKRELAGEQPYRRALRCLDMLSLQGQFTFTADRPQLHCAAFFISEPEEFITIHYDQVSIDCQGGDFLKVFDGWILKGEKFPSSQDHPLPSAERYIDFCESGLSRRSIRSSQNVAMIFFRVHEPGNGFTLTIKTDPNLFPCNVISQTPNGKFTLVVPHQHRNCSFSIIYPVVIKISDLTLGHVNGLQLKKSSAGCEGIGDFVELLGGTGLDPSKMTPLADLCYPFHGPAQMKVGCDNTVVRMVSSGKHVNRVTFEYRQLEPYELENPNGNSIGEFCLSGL
The experiment in a line: Dose Response confirmation of uHTS hits for small molecule antagonists of the CRF-binding protein and CRF-R2 receptor complex. In kind it is functional. Conditions: read-out: IC50_Mean.

Data set [11] is described as follows: blockers of CRF-binding protein–CRF-R2 complex – cell-based, uHTS hits, 384-well, dose response (AID 651639). The note with it: read-out: IC50_Mean. In kind it is functional, Homo sapiens.
For data set [12], the target named is T3, Corticotropin-releasing factor receptor 2/Corticotropin-releasing factor-binding protein. The experiment in a line: activators of CRF receptor 2 with binding protein – uHTS hits, confirmation (AID 602473). The data set is classed as functional. The note with it: read-out: EC50_Mean.
Data set [13] has as its target T4, DNA repair protein RAD52 homolog (Homo sapiens, UniProt P43351).
T4 sequence (P43351 whole entry): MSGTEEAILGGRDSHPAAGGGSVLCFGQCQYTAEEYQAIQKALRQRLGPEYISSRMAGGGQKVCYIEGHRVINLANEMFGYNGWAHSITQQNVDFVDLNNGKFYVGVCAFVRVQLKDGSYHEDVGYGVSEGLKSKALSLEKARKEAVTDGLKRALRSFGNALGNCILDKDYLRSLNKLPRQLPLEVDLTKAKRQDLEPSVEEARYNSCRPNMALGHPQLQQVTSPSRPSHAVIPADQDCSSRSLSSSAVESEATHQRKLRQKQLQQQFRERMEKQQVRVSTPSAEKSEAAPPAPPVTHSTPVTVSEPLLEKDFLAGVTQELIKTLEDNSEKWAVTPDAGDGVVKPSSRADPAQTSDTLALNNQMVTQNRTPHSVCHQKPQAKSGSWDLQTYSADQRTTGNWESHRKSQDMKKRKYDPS
The data set is classed as functional, biochemical.

Data set [14] concerns the target T5, DNA repair and recombination protein RAD54-like (Homo sapiens, UniProt Q92698).
T5 sequence (Q92698 whole entry): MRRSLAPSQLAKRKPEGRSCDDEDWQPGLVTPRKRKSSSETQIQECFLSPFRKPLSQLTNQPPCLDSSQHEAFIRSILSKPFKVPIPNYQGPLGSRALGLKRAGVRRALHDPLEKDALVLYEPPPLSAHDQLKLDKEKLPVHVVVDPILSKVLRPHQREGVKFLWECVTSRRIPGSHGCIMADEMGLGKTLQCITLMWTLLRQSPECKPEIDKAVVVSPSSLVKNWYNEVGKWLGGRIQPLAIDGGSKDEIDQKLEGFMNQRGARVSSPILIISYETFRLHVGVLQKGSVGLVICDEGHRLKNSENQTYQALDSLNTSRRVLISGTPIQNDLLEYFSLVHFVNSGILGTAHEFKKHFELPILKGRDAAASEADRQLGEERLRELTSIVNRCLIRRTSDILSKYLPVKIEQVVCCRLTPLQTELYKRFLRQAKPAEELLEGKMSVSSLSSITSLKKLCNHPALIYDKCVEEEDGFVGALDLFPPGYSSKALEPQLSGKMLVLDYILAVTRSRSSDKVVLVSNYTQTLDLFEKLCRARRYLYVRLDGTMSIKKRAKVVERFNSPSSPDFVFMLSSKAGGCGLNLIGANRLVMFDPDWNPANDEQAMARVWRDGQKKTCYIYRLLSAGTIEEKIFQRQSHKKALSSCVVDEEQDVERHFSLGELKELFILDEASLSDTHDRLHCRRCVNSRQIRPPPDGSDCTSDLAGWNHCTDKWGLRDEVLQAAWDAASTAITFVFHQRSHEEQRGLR
The experiment in a line: RAD54 Holliday junction migration blockers – biochemical, fluorescence, cherry-picked samples, dose series, confirmation (AID 651657). In kind it is functional.

Data set [15] deals with T2, Cytochrome P450 2C9. The source holds these as a separate data set.
In a further data set the target is Cytochrome P450 2C19 (Homo sapiens, UniProt P33261). The experiment in a line: Cytochrome panel assay with activity outcomes. Panel member name: p450-cyp2c19 Compounds with AC50 equal or less than 10 uM are considered active. In kind it is functional.
The next data set addresses T6, Cytochrome P450 1A2 (Homo sapiens, UniProt P05177).
T6 sequence (P05177 whole entry): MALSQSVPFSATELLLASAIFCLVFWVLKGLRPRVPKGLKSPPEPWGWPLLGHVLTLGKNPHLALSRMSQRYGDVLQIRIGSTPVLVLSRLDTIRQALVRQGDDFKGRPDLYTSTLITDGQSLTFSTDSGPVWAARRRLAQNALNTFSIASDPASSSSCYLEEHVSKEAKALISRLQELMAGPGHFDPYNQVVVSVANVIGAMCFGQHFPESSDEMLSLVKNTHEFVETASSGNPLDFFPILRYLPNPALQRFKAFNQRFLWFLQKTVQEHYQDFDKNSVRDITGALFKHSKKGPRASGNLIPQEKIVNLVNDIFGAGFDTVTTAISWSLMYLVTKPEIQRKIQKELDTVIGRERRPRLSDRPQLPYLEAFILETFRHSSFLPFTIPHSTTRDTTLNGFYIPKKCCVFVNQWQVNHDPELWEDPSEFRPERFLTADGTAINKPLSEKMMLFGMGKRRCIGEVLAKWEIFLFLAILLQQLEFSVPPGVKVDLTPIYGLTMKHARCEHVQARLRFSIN

Structures are written as SMILES. Activity calls are given as the source filed them.

Sequence of Cytochrome P450 2D6 (P10635 whole entry): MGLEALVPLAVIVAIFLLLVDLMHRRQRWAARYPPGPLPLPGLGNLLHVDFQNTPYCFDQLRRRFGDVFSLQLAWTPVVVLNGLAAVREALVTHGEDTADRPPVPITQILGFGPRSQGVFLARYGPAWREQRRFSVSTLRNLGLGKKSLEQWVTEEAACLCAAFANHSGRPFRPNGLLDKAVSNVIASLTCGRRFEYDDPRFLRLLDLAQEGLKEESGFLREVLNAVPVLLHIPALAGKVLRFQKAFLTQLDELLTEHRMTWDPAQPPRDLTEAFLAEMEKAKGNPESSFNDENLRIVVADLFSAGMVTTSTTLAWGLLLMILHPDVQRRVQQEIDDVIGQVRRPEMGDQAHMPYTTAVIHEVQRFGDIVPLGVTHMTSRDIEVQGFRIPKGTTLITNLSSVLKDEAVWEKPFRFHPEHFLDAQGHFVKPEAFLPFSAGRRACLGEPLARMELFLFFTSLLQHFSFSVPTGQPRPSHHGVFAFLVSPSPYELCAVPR
T2 sequence (P11712 whole entry): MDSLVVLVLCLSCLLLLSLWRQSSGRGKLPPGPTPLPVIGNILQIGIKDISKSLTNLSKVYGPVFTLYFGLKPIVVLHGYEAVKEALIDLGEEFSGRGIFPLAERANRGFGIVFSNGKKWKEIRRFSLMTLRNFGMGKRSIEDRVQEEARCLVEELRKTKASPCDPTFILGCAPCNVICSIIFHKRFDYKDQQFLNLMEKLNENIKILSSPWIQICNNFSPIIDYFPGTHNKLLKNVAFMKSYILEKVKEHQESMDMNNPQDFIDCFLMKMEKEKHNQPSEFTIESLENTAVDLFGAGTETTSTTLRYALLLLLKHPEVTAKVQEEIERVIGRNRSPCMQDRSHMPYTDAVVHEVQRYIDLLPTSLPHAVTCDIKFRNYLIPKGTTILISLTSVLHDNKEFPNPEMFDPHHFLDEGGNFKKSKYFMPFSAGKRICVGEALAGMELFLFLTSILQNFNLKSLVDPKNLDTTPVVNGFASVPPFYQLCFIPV
T1 sequence (P08684 whole entry): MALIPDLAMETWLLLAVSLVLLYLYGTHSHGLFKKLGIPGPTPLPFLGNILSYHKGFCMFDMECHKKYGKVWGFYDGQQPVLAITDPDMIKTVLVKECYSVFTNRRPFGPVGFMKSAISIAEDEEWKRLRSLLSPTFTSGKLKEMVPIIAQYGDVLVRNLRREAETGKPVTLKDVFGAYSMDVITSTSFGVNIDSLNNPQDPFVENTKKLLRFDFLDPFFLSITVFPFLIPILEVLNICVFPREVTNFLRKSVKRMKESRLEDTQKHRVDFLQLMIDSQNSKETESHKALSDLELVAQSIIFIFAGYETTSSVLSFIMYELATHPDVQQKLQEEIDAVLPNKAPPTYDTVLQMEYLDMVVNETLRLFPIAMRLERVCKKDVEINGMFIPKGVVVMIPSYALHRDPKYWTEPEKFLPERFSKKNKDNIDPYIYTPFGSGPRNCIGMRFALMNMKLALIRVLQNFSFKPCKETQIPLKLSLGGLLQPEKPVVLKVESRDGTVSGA
Sequence of Cytochrome P450 2C19 (P33261 whole entry): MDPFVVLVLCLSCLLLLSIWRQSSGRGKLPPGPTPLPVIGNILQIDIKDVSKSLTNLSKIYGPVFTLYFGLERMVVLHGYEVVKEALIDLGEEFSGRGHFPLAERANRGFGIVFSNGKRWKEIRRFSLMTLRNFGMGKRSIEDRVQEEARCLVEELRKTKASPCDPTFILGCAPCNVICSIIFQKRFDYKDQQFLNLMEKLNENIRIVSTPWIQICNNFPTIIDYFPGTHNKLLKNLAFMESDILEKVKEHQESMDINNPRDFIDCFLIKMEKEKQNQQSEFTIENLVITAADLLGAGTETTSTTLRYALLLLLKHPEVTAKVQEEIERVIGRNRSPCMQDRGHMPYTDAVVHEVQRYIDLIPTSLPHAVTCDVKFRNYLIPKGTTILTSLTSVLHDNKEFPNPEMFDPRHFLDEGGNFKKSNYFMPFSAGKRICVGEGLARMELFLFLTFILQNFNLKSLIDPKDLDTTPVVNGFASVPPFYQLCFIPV
Sequence of Tumor necrosis factor (P01375 whole entry): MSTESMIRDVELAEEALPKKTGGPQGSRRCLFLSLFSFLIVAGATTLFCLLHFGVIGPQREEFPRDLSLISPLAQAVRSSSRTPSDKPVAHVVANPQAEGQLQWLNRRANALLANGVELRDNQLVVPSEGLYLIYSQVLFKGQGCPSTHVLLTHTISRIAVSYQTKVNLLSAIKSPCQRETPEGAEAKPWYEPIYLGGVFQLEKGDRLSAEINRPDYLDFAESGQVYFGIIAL
Sequence of Eukaryotic translation initiation factor 4E (P63073 whole entry): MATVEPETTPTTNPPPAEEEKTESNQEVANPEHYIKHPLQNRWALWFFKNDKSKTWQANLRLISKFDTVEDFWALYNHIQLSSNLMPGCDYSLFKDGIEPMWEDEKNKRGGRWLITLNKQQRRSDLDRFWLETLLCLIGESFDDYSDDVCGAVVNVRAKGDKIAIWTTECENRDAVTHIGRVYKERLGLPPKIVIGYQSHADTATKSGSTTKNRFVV

In the case of `CCN1C(=O)[C@H]2[C@H]3[C@H](O)[C@H](O)C/C(=N/OC[C@@H](C)[C@H](OCc4ccccc4)C(C)C)[C@@H]3CC[C@@H]2C1=O`, the AC50 at Cytochrome P450 3A4 [1] is 3.98 µM (inconclusive); on Cytochrome P450 2D6, “inconclusive”.
With `CC(C)COc1ccc(C(=O)Nc2scc(-c3ccc(Cl)cc3Cl)c2C(N)=O)cc1`, on Cytochrome P450 3A4 [2], the AC50 entry is on record as “inconclusive”. Also, the results for the EC50 in [3] and in [4] were > 60 µM (not active) and 1.76 µM (active), respectively.
Regarding `CNC(=S)NNC(=O)COc1ccccc1C`, at Cytochrome P450 2D6, the AC50 entry was “inconclusive”.
Turning to `CN(C)CCNc1nc2c(c(=O)n(C)c(=O)n2C)n1C`, the half-maximal activity concentration (AC50) entry on Cytochrome P450 2D6 is recorded as “inconclusive”.
On to `COc1ccc(-c2c(C)nn3c(N)c(C#N)cnc23)cc1OC`, for which the EC50 was > 120 µM (not active) in [5], > 120 µM (not active) in [6] and 50.1 µM (active) in data set [8]. The IC50 in data set [7] was 50 µM (inactive).
For `O=C(O)[C@H]1CCN1`, the AC50 result on Cytochrome P450 3A4 [2] and at Cytochrome P450 2C9 [9] was “inconclusive” each time.
`CCC(=O)N1CCc2cc(S(=O)(=O)N3CCN(c4ccc([N+](=O)[O-])cc4)CC3)ccc21`: the IC50 in the data set on HEK293 and on Tumor necrosis factor was > 20 µM (inactive) throughout.
Consider `Cc1ccc(S(=O)(=O)c2nnn3c2nc(N2CCCCC2)c2ccccc23)cc1`, for which the EC50 is > 60 µM (inconclusive) in data set [3], > 53 µM (inactive) in data set [12] and 1.14 µM (active) in data set [4]. Further, the IC50 in [10] was 2.96 µM (active); in data set [11] it was 10 µM (active).
`CCOC(=O)c1cnc2c(C)cc(C)cc2c1NCCCN1CCOCC1`: the results for the AC50 in [13] and in [14] were 11.4 µM (active) and 5.48 µM (active), respectively.
For the compound `COC(=O)N1CCC2(CC1)CCN(C(c1ccccc1)c1ccccc1)CC2`, the concentration at half-maximal activity (AC50) is 39.8 µM (inconclusive) on Cytochrome P450 2C9 [15] and “inconclusive” at Cytochrome P450 3A4 [2].
For the compound `Nc1nc(Cl)cc(NCCO)n1`, the AC50 entry at Cytochrome P450 2C19 and at Cytochrome P450 2D6 was “inconclusive” in each case.
As for `CN(C)CCNC(=O)c1cccc(-c2cnc3c(NC=O)cc(-c4ccc(F)cc4)cn23)c1`, the AC50 in [13] was 3.96 µM (active); in [14] it was 17.7 µM (active).
On to `Cc1ccccc1NC(=O)Cc1nc(COC(=O)c2cc([N+](=O)[O-])ccc2NCCO)cs1`, for which the IC50 in data set [10] is 23.2 µM (active); in data set [11], 13.8 µM (active). Also, the EC50 in data set [12] is > 53 µM (inactive).
For the compound `Cc1cc2c(cc1C)-c1nnc(-c3ccc4ccccc4n3)n1C(C)(C)C2`, the concentration at half-maximal activity (AC50) result at Cytochrome P450 3A4 [2] was “inconclusive”; at Cytochrome P450 1A2, 5.01 µM (inconclusive); at Cytochrome P450 2C9 [9], “inconclusive”.
As to `N#Cc1cccc(NC(=O)N2CCC3(CC2)CCN(C(=O)c2ccco2)CC3)c1`, the AC50 result on Cytochrome P450 3A4 [2] is “inconclusive”; at Cytochrome P450 2C19 (read-out: AC50) it was 20 µM (inconclusive).
For `COc1ccc(C(C(=O)NC2CCCC2)N(C(=O)c2ccoc2C)c2cc(C)cc(C)c2)cc1` (stereo not given), the IC50 in data set [10] is 5.69 µM (active); in data set [11], > 20 µM (inactive). Further, the EC50 in [12] was > 53 µM (inactive).
For the compound `Cc1ccc2nc3c(cc(C(=O)NCCN4CCOCC4)c(=N)n3CCCN3CCOCC3)c(=O)n2c1`, the AC50 in data set [14] is 29.5 µM (active).

(Values after ChEMBL document CHEMBL1201862, “PubChem BioAssay data set” (2004).)
